Experimental data published in ChEMBL document CHEMBL1128476, “Synthesis and pharmacological evaluation of 2'-hydroxychalcones and flavones as inhibitors of inflammatory mediators generation” (J Med Chem, 1995).
pIC50: −log10 of the molar value.

How the values were obtained:
Homo sapiens [1] = organism: Homo sapiens; experiment: Inhibitory activity against TXB2 generation at 100 uM concentration; assay type: functional
Homo sapiens [2] = organism: Homo sapiens; experiment: Inhibitory activity against elastase release by human neutrophils; assay type: functional; design: concentration or dose not given beside the values
[3] = molecular target: T1, Phospholipase A2, membrane associated (Homo sapiens) (UniProt P14555); experiment: Inhibitory activity against synovial human recombinant phospholipase (hr-PLA2) at 100 uM concentration
T1 sequence (whole entry): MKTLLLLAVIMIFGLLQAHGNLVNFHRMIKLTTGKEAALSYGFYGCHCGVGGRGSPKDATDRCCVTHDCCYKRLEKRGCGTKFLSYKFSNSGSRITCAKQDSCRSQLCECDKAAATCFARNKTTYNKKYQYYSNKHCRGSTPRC

Rattus norvegicus [4] = organism: Rattus norvegicus; experiment: IC50 value was evaluated by measuring the 50% inhibition of microsomal lipid peroxidation induced by CCl4/NADPH.; assay type: functional
Rattus norvegicus [5] = organism: Rattus norvegicus; experiment: Percent inhibition was evaluated by measuring the inhibition of microsomal lipid peroxidation induced by [Fe(3+)]-ADP/NADPH at 100 uM concentration; assay type: functional
Rattus norvegicus [6] = organism: Rattus norvegicus; experiment: Percent inhibition was evaluated by measuring the inhibition of microsomal lipid peroxidation induced by CCl4/NADPH.p < 0.01; assay type: functional; conditions: dose or concentration not given here
Rattus norvegicus [7] = organism: Rattus norvegicus; experiment: Inhibition of microsomal lipid peroxidation induced by [Fe(2+)]/ascorbate at 100 uM concentration; assay type: functional
Rattus norvegicus [8] = organism: Rattus norvegicus; experiment: Percent inhibition was evaluated by measuring the inhibition of peroxyl scavenging activity at 100 uM concentration; assay type: functional
Rattus norvegicus [9] = organism: Rattus norvegicus; experiment: (§1) Inhibition of microsomal lipid peroxidation induced by CCl4/NADPH in rat liver; assay type: functional; conditions: dose or concentration not given here
Rattus norvegicus [10] = organism: Rattus norvegicus; experiment: IC50 value was evaluated by measuring the 50% inhibition of peroxyl scavenging activity.; assay type: functional
Rattus norvegicus [11] = organism: Rattus norvegicus; experiment: Inhibition of microsomal lipid peroxidation induced by [Fe(3+)]-ADP/NADPH in rat liver; assay type: functional
Rattus norvegicus [12] = organism: Rattus norvegicus; experiment: as §1; assay type: functional
Rattus norvegicus [13] = organism: Rattus norvegicus; experiment: Inhibition of microsomal lipid peroxidation induced by [Fe(2+)]/ascorbate in rat liver; assay type: functional
Rattus norvegicus [14] = organism: Rattus norvegicus; experiment: Inhibition of microsomal lipid peroxidation induced by [Fe(2+)]/ascorbate at given 100 uM concentration in rat liver; assay type: functional
Rattus norvegicus [15] = organism: Rattus norvegicus; experiment: Inhibition of microsomal lipid peroxidation induced by [Fe(3+)]-ADP/NADPH at 100 uM concentration in rat liver; assay type: functional
Rattus norvegicus [16] = organism: Rattus norvegicus; experiment: Percent inhibition was evaluated by measuring the inhibition of microsomal lipid peroxidation induced by CCl4/NADPH; assay type: functional; conditions: dose or concentration not given here
Rattus norvegicus [17] = organism: Rattus norvegicus; experiment: IC50 value was evaluated by measuring the 50% inhibition of microsomal lipid peroxidation induced by [Fe(3+)]-ADP/NADPH.; assay type: functional
Rattus norvegicus [18] = organism: Rattus norvegicus; experiment: Inhibition of microsomal lipid peroxidation induced by [Fe(3+)]-ADP/NADPH at 100 uM concentration; assay type: functional
Rattus norvegicus [19] = organism: Rattus norvegicus; experiment: Inhibition of microsomal lipid peroxidation induced by CCl4/NADPH at 100 uM concentration; assay type: functional
Rattus norvegicus [20] = organism: Rattus norvegicus; experiment: Inhibition of microsomal lipid peroxidation induced by CCl4/NADPH; assay type: functional; conditions: dose or concentration not given here
Rattus norvegicus [21] = organism: Rattus norvegicus; experiment: Percent inhibition was evaluated by measuring the inhibition of peroxyl scavenging activity; assay type: functional; conditions: dose or concentration not given here
Rattus norvegicus [22] = organism: Rattus norvegicus; experiment: Percent inhibition was evaluated by measuring the inhibition of microsomal lipid peroxidation induced by CCl4/NADPH.; assay type: functional; conditions: dose or concentration not given here
Rattus norvegicus [23] = organism: Rattus norvegicus; experiment: Inhibition of microsomal lipid peroxidation induced by CCl4/NADPH.; assay type: functional
Rattus norvegicus [24] = organism: Rattus norvegicus; experiment: Inhibition of peroxyl scavenging activity at 100 uM concentration; assay type: functional
Rattus norvegicus [25] = organism: Rattus norvegicus; experiment: Inhibition of microsomal lipid peroxidation induced by [Fe(3+)]-ADP/NADPH.; assay type: functional
[26] = molecular target: T1, Phospholipase A2, membrane associated (Homo sapiens); experiment: Inhibitory activity against synovial human recombinant phospholipase (hr-PLA2) at 1 mM concentration

Compound	inhibition [3]	Inhibition (Homo sapiens [1])	Inhibition (Homo sapiens [2])	inhibition (Rattus norvegicus [7])	inhibition (Rattus norvegicus [8])	inhibition (Rattus norvegicus [18])	also measured
COc1ccc2c(c1)c(CC(=O)O)c(C)n2C(=O)c1ccc(Cl)cc1 [INDOMETHACIN]	–	100%	31.9%	–	–	–	–
COc1ccc(/C=C/C(=O)c2ccc(OC)c(OC)c2O)cc1OC	55%	77.2%	87.6%	0%	40%	–	pIC50 (Rattus norvegicus [4]): 4.16; inhibition (Rattus norvegicus [5]): 33.1%; inhibition (Rattus norvegicus [6]): 57.2%
CCCOC(=O)c1cc(O)c(O)c(O)c1 [PROPYL GALLATE]	–	–	–	–	100%	–	inhibition (Rattus norvegicus [9]): 100%; pIC50 (Rattus norvegicus [10]): 4.47; pIC50 (Rattus norvegicus [11]): 5.10; pIC50 (Rattus norvegicus [12]): 5.35; pIC50 (Rattus norvegicus [13]): 5.31; inhibition (Rattus norvegicus [14]): 100%; inhibition (Rattus norvegicus [15]): 100%
COc1ccc(/C=C/C(=O)c2ccc(C)c(C)c2O)cc1OC	27.5%	28.1%	39.6%	8.2%	–	51%	pIC50 (Rattus norvegicus [19]): 4.02; inhibition (Rattus norvegicus [20]): 55.3%; inhibition (Rattus norvegicus [21]): 28.8%
CCN(CC)CCCC(C)Nc1c2ccc(Cl)cc2nc2ccc(OC)cc12 (centres undefined)	–	–	–	–	–	–	inhibition [26]: 48.9%

The next lines start with results.

inhibition [3]	Compound	Inhibition (Homo sapiens [1])	Inhibition (Homo sapiens [2])	inhibition (Rattus norvegicus [7])	inhibition (Rattus norvegicus [8])	inhibition (Rattus norvegicus [18])	also measured
25.7%	COc1ccc(-c2cc(=O)c3ccc(C)c(C)c3o2)cc1OC	37.4%	9.6%	0%	37.4%	89.6%	inhibition (Rattus norvegicus [16]): 26.2%; pIC50 (Rattus norvegicus [17]): 4.53
46.2%	COc1ccc(-c2cc(=O)c3ccc(OC)c(OC)c3o2)cc1OC	38.6%	41.7%	0%	–	93.2%	inhibition (Rattus norvegicus [22]): 58.2%; pIC50 (Rattus norvegicus [23]): 4.25; inhibition (Rattus norvegicus [24]): 30%; pIC50 (Rattus norvegicus [25]): 4.20
